# Test results from patent US20130172320A1, “PYRIDO [4,3-B] INDOLE AND PYRIDO [3,4-B] INDOLE DERIVATIVES AND METHODS OF USE” (priority 2010, published 2013).
# Tests used:
# [1] = target: T1, human recombinant serotonin (5-Hydroxytryptamine) 5-HT2C receptor (Homo sapiens, UniProt P28335); assay: Serotonin 5-HT2C radioligand binding ([3H]Mesulergine); conditions: compound at 0.1 μM; read-out: Percentage inhibition of ligand binding, Serotonin (0.1 μM) 5-HT2C
# T1 construct: expressed in transfected cells; host or cells: Chinese hamster ovary (CHO) K1 cells
# T1 sequence (P28335 33-458): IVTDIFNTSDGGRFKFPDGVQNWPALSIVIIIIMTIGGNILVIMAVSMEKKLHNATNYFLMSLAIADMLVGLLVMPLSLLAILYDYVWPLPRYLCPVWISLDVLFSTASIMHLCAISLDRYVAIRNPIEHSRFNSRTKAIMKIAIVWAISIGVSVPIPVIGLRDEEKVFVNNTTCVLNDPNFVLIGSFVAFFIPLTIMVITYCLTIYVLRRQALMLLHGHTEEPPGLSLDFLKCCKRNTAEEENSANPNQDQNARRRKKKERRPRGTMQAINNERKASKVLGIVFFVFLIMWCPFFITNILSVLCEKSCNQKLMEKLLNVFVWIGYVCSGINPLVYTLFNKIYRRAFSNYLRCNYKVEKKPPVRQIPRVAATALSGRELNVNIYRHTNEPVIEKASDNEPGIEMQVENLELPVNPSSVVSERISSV
# Method: To evaluate in radioligand binding assays the activity of compounds of the invention, human recombinant serotonin (5-Hydroxytryptamine) 5-HT2C receptor expressed in Chinese hamster ovary (CHO) K1 cells (Wolf, W. et al, J. Neurochem. 69:1449, 1997) in a modified Tris-HCl buffer (50 mM Tris-HCl, pH 7.4, 0.1% Ascorbic Acid, 10 μM Pargyline) was used. Compounds of the invention were incubated with 1 nM [^3H]Mesulergine for 60 min at 25° C. Non-specific binding was estimated in the presence of 1 μM Mianserin. Receptor proteins were filtered and washed, the filters were then counted to determine [^3H]Mesulergine specifically bound. Compounds were screened at 1 μM or lower, using 1% DMSO as vehicle. Biochemical assay results are presented as the percent inhibition of specific binding in Table 4.
# [2] = target: T2, human recombinant serotonin (5-Hydroxytryptamine) 5-HT2A receptor (Homo sapiens, UniProt P28223); assay: Serotonin 5-HT2A radioligand binding ([3H]Ketanserin); conditions: compound at 0.1 μM; read-out: Percentage inhibition of ligand binding, Serotonin (0.1 μM) 5-HT2A
# T2 construct: expressed in transfected cells; host or cells: Chinese hamster ovary (CHO) K1 cells
# T2 sequence (P28223 whole entry): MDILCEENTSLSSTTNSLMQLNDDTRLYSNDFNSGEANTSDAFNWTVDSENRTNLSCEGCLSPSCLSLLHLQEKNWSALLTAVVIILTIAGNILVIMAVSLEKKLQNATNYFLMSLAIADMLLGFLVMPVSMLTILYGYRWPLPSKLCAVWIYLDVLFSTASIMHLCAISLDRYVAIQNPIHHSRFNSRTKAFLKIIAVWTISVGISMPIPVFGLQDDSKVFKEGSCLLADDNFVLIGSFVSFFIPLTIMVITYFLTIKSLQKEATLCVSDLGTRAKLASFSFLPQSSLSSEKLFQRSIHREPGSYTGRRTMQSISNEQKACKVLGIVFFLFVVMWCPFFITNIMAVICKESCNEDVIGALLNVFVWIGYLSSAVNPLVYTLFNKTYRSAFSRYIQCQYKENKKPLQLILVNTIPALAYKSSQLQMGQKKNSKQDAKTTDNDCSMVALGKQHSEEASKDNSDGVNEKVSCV
# Method: To evaluate in radioligand binding assays the activity of compounds of the invention, human recombinant serotonin (5-Hydroxytryptamine) 5-HT2A receptor expressed in Chinese hamster ovary (CHO) K1 cells (Bonhaus, D. et al, Br. J. Pharmacol. 115:622, 1995; Saucier, C. et al, J. Neurochem. 68:1998, 1997) in a 50 mM Tris-HCl buffer, pH 7.4, was used. Compounds of the invention were incubated with 0.5 nM [^3H]Ketanserin for 60 min at 25° C. Non-specific binding was estimated in the presence of 1 μM Mianserin. Receptor proteins were filtered and washed, the filters were then counted to determine [^3H]Ketanserin specifically bound. Compounds were screened at 1 μM or lower, using 1% DMSO as vehicle. Biochemical assay results are presented as the percent inhibition of specific binding in Table 4.
# [3] = target: T3, human recombinant serotonin (5-Hydroxytryptamine) 5-HT6 receptor (Homo sapiens, UniProt P50406); assay: Serotonin 5-HT6 radioligand binding ([3H]LSD); conditions: compound at 0.1 μM; read-out: Percentage inhibition of ligand binding, Serotonin (0.1 μM) 5-HT6
# T3 construct: expressed in transfected cells; host or cells: human HeLa cells
# T3 sequence (P50406 whole entry): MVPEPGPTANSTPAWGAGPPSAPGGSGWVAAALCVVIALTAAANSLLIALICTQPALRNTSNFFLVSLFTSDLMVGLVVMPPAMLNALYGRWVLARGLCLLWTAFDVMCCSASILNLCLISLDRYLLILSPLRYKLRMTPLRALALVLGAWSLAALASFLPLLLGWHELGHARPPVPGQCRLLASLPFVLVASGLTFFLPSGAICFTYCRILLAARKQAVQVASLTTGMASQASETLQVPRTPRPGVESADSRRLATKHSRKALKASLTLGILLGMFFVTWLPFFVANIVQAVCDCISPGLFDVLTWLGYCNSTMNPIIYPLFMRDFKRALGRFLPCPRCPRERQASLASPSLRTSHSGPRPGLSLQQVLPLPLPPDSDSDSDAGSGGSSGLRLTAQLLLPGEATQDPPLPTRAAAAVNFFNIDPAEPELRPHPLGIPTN
# Method: To evaluate in radioligand binding assays the activity of compounds of the invention, human recombinant serotonin (5-Hydroxytryptamine) 5-HT6 receptor expressed in human HeLa cells (Monsma, F. Jr. et al, Mol. Pharmacol. 43:320, 1993) in a modified Tris-HCl buffer (50 mM Tris-HCl, pH 7.4, 150 mM NaCl, 2 mM Ascorbic Acid, 0.001% BSA) was used. Compounds of the invention were incubated with 1.5 nM [3H]Lysergic acid diethylamide (LSD) for 120 min at 37° C. Non-specific binding was estimated in the presence of 5 μM Serotonin (5-HT). Receptor proteins were filtered and washed, the filters were then counted to determine [3H]LSD specifically bound. Compounds were screened at 1 μM or lower, using 1% DMSO as vehicle. Biochemical assay results are presented as the percent inhibition of specific binding in Table 4.
# [4] = target: human recombinant dopamine D2L receptor (Homo sapiens, UniProt P14416); assay: Dopamine D2L radioligand binding ([3H]Spiperone); conditions: compound at 1 μM; read-out: Percentage inhibition of ligand binding, Dopamine (1 μM) D2L
# Chain of human recombinant dopamine D2L receptor (P14416 whole entry): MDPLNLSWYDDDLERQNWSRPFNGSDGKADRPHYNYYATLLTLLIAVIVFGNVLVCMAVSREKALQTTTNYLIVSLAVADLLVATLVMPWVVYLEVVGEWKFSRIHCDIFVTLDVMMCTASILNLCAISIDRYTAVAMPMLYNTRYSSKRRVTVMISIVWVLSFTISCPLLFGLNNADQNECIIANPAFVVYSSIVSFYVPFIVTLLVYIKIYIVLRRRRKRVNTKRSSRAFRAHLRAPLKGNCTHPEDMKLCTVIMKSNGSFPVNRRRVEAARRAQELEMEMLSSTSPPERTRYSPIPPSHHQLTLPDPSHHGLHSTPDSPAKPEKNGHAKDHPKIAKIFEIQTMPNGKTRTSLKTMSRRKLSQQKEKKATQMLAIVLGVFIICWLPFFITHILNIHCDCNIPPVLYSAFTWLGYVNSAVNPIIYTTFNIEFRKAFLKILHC
# Method: To evaluate in radioligand binding assays the activity of compounds of the invention, human recombinant dopamine D2L receptor expressed in Chinese hamster ovary (CHO) cells (Grandy, D. et al, Proc. Natl. Acad. Sci. USA. 86:9762, 1989; Hayes, G. et al, Mol. Endocrinol. 6:920, 1992) in a modified Tris-HCl buffer (50 mM Tris-HCl, pH 7.4, 1.4 mM Ascorbic Acid, 0.001% BSA, 150 mM NaCl) was used. Compounds of the invention were incubated with 0.16 nM [^3H]Spiperone for 120 min at 25° C. Non-specific binding was estimated in the presence of 10 μM Haloperidol. Receptor proteins were filtered and washed, the filters were then counted to determine [^3H]Spiperone specifically bound. Compounds were screened at 1 μM or lower, using 1% DMSO as vehicle. Biochemical assay results are presented as the percent inhibition of specific binding in Table 3.
# [5] = target: human recombinant histamine H1 receptor (Homo sapiens, UniProt P35367); assay: Histamine H1 radioligand binding ([3H]Pyrilamine); conditions: compound at 1 μM; 1.2 nM [3H]Pyrilamine; read-out: Binding data (Percentage inhibition) Histamine H1 (1 μM)
# Chain of human recombinant histamine H1 receptor (P35367 whole entry): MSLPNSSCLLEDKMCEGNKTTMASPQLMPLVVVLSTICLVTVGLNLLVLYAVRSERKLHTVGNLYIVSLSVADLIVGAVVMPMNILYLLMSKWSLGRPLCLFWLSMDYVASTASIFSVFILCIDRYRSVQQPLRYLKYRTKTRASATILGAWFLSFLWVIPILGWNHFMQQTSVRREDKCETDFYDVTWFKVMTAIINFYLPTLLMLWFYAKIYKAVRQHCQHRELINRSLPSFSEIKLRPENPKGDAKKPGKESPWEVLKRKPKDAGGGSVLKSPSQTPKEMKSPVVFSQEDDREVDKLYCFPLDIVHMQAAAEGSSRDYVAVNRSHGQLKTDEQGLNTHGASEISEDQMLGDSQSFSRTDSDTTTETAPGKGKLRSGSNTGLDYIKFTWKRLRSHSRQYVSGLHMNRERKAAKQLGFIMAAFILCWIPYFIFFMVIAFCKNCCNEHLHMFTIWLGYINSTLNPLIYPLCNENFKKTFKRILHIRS
# Method: To evaluate in radioligand binding assays the activity of compounds of the invention, human recombinant histamine H1 receptor expressed in Chinese hamster ovary (CHO) cells (De Backer, M. et al, Biochem. Biophys. Res. Comm. 197(3):1601, 1993) in a modified Tris-HCl buffer (50 mM Tris-HCl, pH 7.4, 2 mM MgCl2, 100 mM NaCl, 250 mM Sucrose) was used. Compounds of the invention were incubated with 1.2 nM [^3H]Pyrilamine for 180 min at 25° C. Non-specific binding was estimated in the presence of 1 μM Pyrilamine. Receptor proteins were filtered and washed, the filters were then counted to determine [^3H]Pyrilamine specifically bound. Compounds were screened at 1 μM or lower, using 1% DMSO as vehicle. Biochemical assay results are presented as the percent inhibition of specific binding in Table 2.
# [6] = target: human recombinant serotonin (5-Hydroxytryptamine) 5-HT7 receptor (Homo sapiens, UniProt P34969); assay: Serotonin 5-HT7 radioligand binding ([3H]LSD); conditions: compound at 0.1 μM; read-out: Percentage inhibition of ligand binding, Serotonin (0.1 μM) 5-HT7
# Chain of human recombinant serotonin (5-Hydroxytryptamine) 5-HT7 receptor (P34969 whole entry): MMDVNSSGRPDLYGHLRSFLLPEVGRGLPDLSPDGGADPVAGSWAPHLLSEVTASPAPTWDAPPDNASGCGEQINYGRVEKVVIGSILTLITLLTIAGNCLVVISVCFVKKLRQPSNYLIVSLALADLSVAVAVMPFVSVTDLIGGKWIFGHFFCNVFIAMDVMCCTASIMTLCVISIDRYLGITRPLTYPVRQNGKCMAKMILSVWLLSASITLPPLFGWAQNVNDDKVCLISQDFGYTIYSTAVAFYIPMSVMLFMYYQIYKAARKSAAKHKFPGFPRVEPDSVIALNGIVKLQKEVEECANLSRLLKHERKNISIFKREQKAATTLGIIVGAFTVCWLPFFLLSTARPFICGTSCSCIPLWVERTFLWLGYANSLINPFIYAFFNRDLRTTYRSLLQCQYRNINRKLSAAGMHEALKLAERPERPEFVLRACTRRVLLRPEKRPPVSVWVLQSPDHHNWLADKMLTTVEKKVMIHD
# Method: To evaluate in radioligand binding assays the activity of compounds of the invention, human recombinant serotonin (5-Hydroxytryptamine) 5-HT7 receptor expressed in Chinese hamster ovary (CHO) cells (Roth, B. et al, J. Pharmacol. Exp. Ther. 268:1403, 1994; Shen, Y. et al, J. Biol. Chem. 268:18200, 1993) in a modified Tris-HCl buffer (50 mM Tris-HCl, pH 7.4, 10 mM MgCl2, 0.5 mM EDTA) was used. Compounds of invention were incubated with 5.5 nM [^3H] Lysergic acid diethylamide (LSD) for 2 h at 25° C. Non-specific binding was estimated in the presence of 10 μM Serotonin (5-HT). Receptor proteins were filtered and washed, the filters were then counted to determine [^3H]LSD specifically bound. Compounds were screened at 1 μM or lower, using 1% DMSO as vehicle. Biochemical assay results are presented as the percent inhibition of specific binding in Table 4.
compound,measurement,setting,value
Cc1ccc2c(c1)c1c(n2C)C(C)(CCc2ccccc2)CN(C)C1 (stereo not drawn) [Compound 44],inhibition at 0.1 µM,[1],12%
same,inhibition at 0.1 µM,[2],4%
same,inhibition at 0.1 µM,[3],17%
same,inhibition at 1 µM,[4],33%
same,inhibition at 1 µM,[5],101%
same,inhibition at 0.1 µM,[6],29%
Cc1ccc2c(c1)c1c(n2C)C(C)(CCc2ccc(C)nc2)CN(C)C1 (stereo not drawn) [Compound 45],inhibition at 0.1 µM,[1],6%
same,inhibition at 0.1 µM,[2],1%
same,inhibition at 0.1 µM,[3],-4%
same,inhibition at 1 µM,[4],5%
same,inhibition at 1 µM,[5],99%
same,inhibition at 0.1 µM,[6],-6%
"Cc1ccc2[nH]c3c(c2c1)CN(C)CC3(C)CCc1ccc(C)nc1 (stereo not drawn) [Compound 46, 2,4,8-Trimethyl-4-[2-(6-methyl-pyridin-3-yl)-ethyl]-2,3,4,5-tetrahydro-1H-pyrido[4,3-b]indole]",inhibition at 0.1 µM,[1],8%
same,inhibition at 0.1 µM,[2],7%
same,inhibition at 0.1 µM,[3],6%
same,inhibition at 1 µM,[4],3%
same,inhibition at 1 µM,[5],34%
same,inhibition at 0.1 µM,[6],-10%
Cc1ccc2[nH]c3c(c2c1)CN(C)CC3(C)CCc1ccccc1 (stereo not drawn) [Compound 43],inhibition at 0.1 µM,[1],-4%
same,inhibition at 0.1 µM,[2],15%
same,inhibition at 0.1 µM,[3],9%
same,inhibition at 1 µM,[4],23%
same,inhibition at 1 µM,[5],93%
same,inhibition at 0.1 µM,[6],-23%
